Where “and” joins values, the source holds several entries; their conditions need not be identical. Equal values may be shown once. Inconclusive results and toxic doses are left out. Rule as the data show it: active = T/C of 150% or more; inactive = T/C below 125%.
Tested on: L1210 leukemia ip in BDF1 mice, survival T/C
Assay: NCI In Vivo Anticancer Drug Screen. Data for tumor model L1210 Leukemia (intraperitoneal) in B6D2F1 (BDF1) mice
Details: endpoint: mean survival time, higher = longer survival
Summary of the method: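 Antitumor effect is assessed in tumor-bearing animals. Survival in the compound arm is compared with a vehicle-dosed control arm and expressed as their quotient.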

[1] = dose: 100.0 mg/kg/injection, schedule: Q01DX001 (ip), vehicle: saline
[2] = dose: 200.0 mg/kg/injection, schedule: Q01DX001 (ip), vehicle: saline
[3] = dose: 400.0 mg/kg/injection, schedule: Q01DX001 (ip), vehicle: saline
[4] = dose: 100.0 mg/kg/injection, schedule: Q01DX001 (ip), vehicle: saline with Tween-80
[5] = dose: 200.0 mg/kg/injection, schedule: Q01DX001 (ip), vehicle: saline with Tween-80
[6] = dose: 400.0 mg/kg/injection, schedule: Q01DX001 (ip), vehicle: saline with Tween-80
[7] = dose: 50.0 mg/kg/injection, schedule: Q01DX009 (ip), vehicle: saline with Tween-80
[8] = dose: 100.0 mg/kg/injection, schedule: Q01DX009 (ip), vehicle: Klucel (hydroxypropylcellulose) (HPC)
[9] = dose: 200.0 mg/kg/injection, schedule: Q01DX009 (ip), vehicle: Klucel (hydroxypropylcellulose) (HPC)
[10] = dose: 100.0 mg/kg/injection, schedule: Q04DX003 (ip), vehicle: saline with Tween-80
[11] = dose: 200.0 mg/kg/injection, schedule: Q04DX003 (ip), vehicle: saline with Tween-80
[12] = dose: 400.0 mg/kg/injection, schedule: Q04DX003 (ip), vehicle: saline with Tween-80
[13] = dose: 100.0 mg/kg/injection, schedule: Q04DX002 (ip), vehicle: saline with Tween-80
[14] = dose: 200.0 mg/kg/injection, schedule: Q04DX002 (ip), vehicle: saline with Tween-80
[15] = dose: 400.0 mg/kg/injection, schedule: Q04DX002 (ip), vehicle: saline with Tween-80
[16] = dose: 400.0 mg/kg/injection, schedule: Q01DX009 (ip), vehicle: saline with Tween-80
[17] = dose: 100.0 mg/kg/injection, schedule: Q04DX003 (ip), vehicle: saline
[18] = dose: 200.0 mg/kg/injection, schedule: Q04DX003 (ip), vehicle: saline
[19] = dose: 400.0 mg/kg/injection, schedule: Q04DX003 (ip), vehicle: saline

Measured: T/C

COC1OC(Cn2cc(-c3ccccc3)nn2)C(OC(C)=O)C(OC(C)=O)C1OC(C)=O (centres undefined)
inactive: dose: 100.0 mg/kg/injection, schedule: Q01DX005 (ip), vehicle: saline 100 % of control | dose: 200.0 mg/kg/injection, schedule: Q01DX005 (ip), vehicle: saline 96 % of control

Oc1ccccc1C=Nc1ccc(Cc2ccc(N=Cc3ccccc3O)cc2)cc1
inactive: [1] 96 % of control | dose: 150.0 mg/kg/injection, schedule: Q04DX003 (ip), vehicle: other 104 % of control | [2] 90 % of control | dose: 300.0 mg/kg/injection, schedule: Q04DX003 (ip), vehicle: other 86 % of control | [3] 90 % of control

CCOC(=O)CC1C(=O)CCCC1=O
inactive: [4] 98 % of control | [5] 104 % of control | [6] 95 % of control

CCCC(O)(CCC)C(=O)O
inactive: [1] 94 % of control | [2] 94 % of control

COc1ccc2c(c1)C(=O)CCC2(C)C
inactive: [7] 100 % of control | dose: 100.0 mg/kg/injection, schedule: Q01DX009 (ip), vehicle: saline with Tween-80 86 % of control | dose: 200.0 mg/kg/injection, schedule: Q01DX009 (ip), vehicle: saline with Tween-80 105 % of control

CCCCOC1CCS(=O)(=O)C1 (centres undefined)
inactive: dose: 100.0 mg/kg/injection, schedule: Q04DX003 (ip), vehicle: other 101 % of control | dose: 200.0 mg/kg/injection, schedule: Q04DX003 (ip), vehicle: other 101 % of control | dose: 400.0 mg/kg/injection, schedule: Q04DX003 (ip), vehicle: other 94 % of control

Nc1nc(N)c(CCCc2ccccc2)c(N)n1
inactive: dose: 100.0 mg/kg/injection, schedule: Q04DX002 (ip), vehicle: Klucel (hydroxypropylcellulose) (HPC) 87 % of control

CCOC(=O)c1sc2ccc([N+](=O)[O-])cc2c1C
inactive: [1] 93 % of control | [2] 95 % of control | [3] 104 % of control

C#CC1(O)CCC2C3CCc4cc(O)ccc4C3CCC21C (centres undefined)
inactive: dose: 50.0 mg/kg/injection, schedule: Q01DX001 (sc), vehicle: steriod suspending solution 94 % of control | dose: 100.0 mg/kg/injection, schedule: Q01DX001 (sc), vehicle: steriod suspending solution 92 % of control | dose: 200.0 mg/kg/injection, schedule: Q01DX001 (sc), vehicle: steriod suspending solution 106 % of control | dose: 400.0 mg/kg/injection, schedule: Q01DX001 (sc), vehicle: steriod suspending solution 97 % of control

CCCCCCCC(=O)O[C@H]1[C@H]2[C@@H](CC1(C)C)C(=O)[C@]13O[C@H]1C(=O)[C@]1(CO1)[C@]23C
inactive: dose: 5.0 mg/kg/injection, schedule: Q01DX009 (ip), vehicle: saline with Tween-80 108 % of control | dose: 10.0 mg/kg/injection, schedule: Q01DX009 (ip), vehicle: saline with Tween-80 119 % of control | dose: 10.0 mg/kg/injection, schedule: Q04DX003 (ip), vehicle: saline with Tween-80 97 % of control | dose: 20.0 mg/kg/injection, schedule: Q01DX009 (ip), vehicle: saline with Tween-80 86 % of control | dose: 20.0 mg/kg/injection, schedule: Q04DX003 (ip), vehicle: saline with Tween-80 99 % of control

CC(C)(C)c1cc(C#N)cc(C(C)(C)C)c1O
inactive: dose: 50.0 mg/kg/injection, schedule: Q01DX009 (ip), vehicle: Klucel (hydroxypropylcellulose) (HPC) 96 % of control | [8] 103 % of control | [9] 96 % of control

COc1nn(C)c(=O)c2cccnc12
inactive: dose: 75.0 mg/kg/injection, schedule: Q01DX001 (ip), vehicle: saline 96 % of control | dose: 150.0 mg/kg/injection, schedule: Q01DX001 (ip), vehicle: saline 98 % of control

OCCCCCCCCCCCCO
inactive: [10] 105 % of control | [11] 94 % of control | [12] 103 % of control

c1ccc(-c2cc(-c3ccccc3)[nH]n2)cc1
inactive: [10] 100 % of control | [11] 110 % of control | [12] 105 % of control

CCOC(=O)Cc1cn(C)c2ccccc12
inactive: [10] 93 % of control | [11] 91 % of control | [12] 96 % of control

COc1ncccn1
inactive: dose: 75.0 mg/kg/injection, schedule: Q01DX009 (ip), vehicle: saline 93 % of control

O=c1[nH]cc(CN(CCO)CCO)c(=O)[nH]1
inactive: dose: 100.0 mg/kg/injection, schedule: Q01DX Z (ip), vehicle: saline 101 % of control | dose: 200.0 mg/kg/injection, schedule: Q01DX Z (ip), vehicle: saline 103 % of control

O=C(Cl)COc1c(Cl)cc(Cl)cc1Cl
inactive: [13] 107 % of control | [14] 107 % of control | [15] 103 % of control

CC(=O)Nc1ccc(OC(=O)Nc2cccc(Cl)c2C)cc1
inactive: [7] 88 % of control and 92 % of control | [4] 92 % of control | [13] 87 % of control and 89 % of control | [10] 93 % of control | [5] 94 % of control | [14] 86 % of control | [11] 87 % of control | [6] 100 % of control | [16] 101 % of control | [15] 96 % of control and 86 % of control | [12] 90 % of control

NC(=O)C1(Nc2ccc(-c3ccc(NC4(C(N)=O)CCCC4)cc3)cc2)CCCC1
inactive: dose: 50.0 mg/kg/injection, schedule: Q01DX001 (ip), vehicle: carboxymethylcellulose (CMC) 95 % of control | dose: 100.0 mg/kg/injection, schedule: Q01DX001 (ip), vehicle: carboxymethylcellulose (CMC) 90 % of control | dose: 200.0 mg/kg/injection, schedule: Q01DX001 (ip), vehicle: carboxymethylcellulose (CMC) 93 % of control

Cc1ccc(NC(=S)/C(=C(/[O-])c2ccc([N+](=O)[O-])cc2)[n+]2ccccc2)c(C)c1
inactive: [8] 101 % of control | [9] 97 % of control | dose: 400.0 mg/kg/injection, schedule: Q01DX009 (ip), vehicle: Klucel (hydroxypropylcellulose) (HPC) 95 % of control

Cc1c2oc3c(C)ccc(C(=O)OCCN4CCOCC4)c3nc-2c(C(=O)OCCN2CCOCC2)c(N)c1=O
inactive: dose: 100.0 mg/kg/injection, schedule: Q04DX002 (ip), vehicle: saline 98 % of control | dose: 200.0 mg/kg/injection, schedule: Q04DX002 (ip), vehicle: saline 103 % of control

CC(C)(C)C1CCCC(=O)C1 (centres undefined)
inactive: dose: 50.0 mg/kg/injection, schedule: Q01DX001 (ip), vehicle: saline 101 % of control | [1] 89 % of control

Clc1ccc(/C(=N\OC(c2ccccc2)c2ccccc2)c2ccccc2)cc1
inactive: [2] 86 % of control | [3] 87 % of control

CC(C)N(C(=O)Nc1cc([N+](=O)[O-])ccc1F)c1ccccc1
inactive: dose: 100.0 mg/kg/injection, schedule: Q04DX003 (ip), vehicle: Klucel (hydroxypropylcellulose) (HPC) 96 % of control | dose: 200.0 mg/kg/injection, schedule: Q04DX003 (ip), vehicle: Klucel (hydroxypropylcellulose) (HPC) 100 % of control | dose: 400.0 mg/kg/injection, schedule: Q04DX003 (ip), vehicle: Klucel (hydroxypropylcellulose) (HPC) 96 % of control

CCOc1ccc(=O)[nH]n1
inactive: dose: 100.0 mg/kg/injection, schedule: Q01DX009 (ip), vehicle: saline 93 % of control | [17] 105 % of control | dose: 200.0 mg/kg/injection, schedule: Q01DX009 (ip), vehicle: saline 93 % of control | [18] 101 % of control | dose: 400.0 mg/kg/injection, schedule: Q01DX009 (ip), vehicle: saline 95 % of control | [19] 115 % of control

COc1ccc(CCN=Cc2ccc3c(c2)Cc2ccccc2-3)cc1OC
inactive: [17] 105 % of control | [18] 108 % of control | [19] 90 % of control

CCOc1nc2ccccc2c2cc3ccccc3cc12
inactive: [1] 103 % of control | [2] 109 % of control | [3] 111 % of control

CCOc1nc(N)nc2c1-c1ccccc1CC2
inactive: [10] 97 % of control | [11] 97 % of control | [12] 90 % of control

Cc1cc(C(=O)O)c(C)n1-c1ccccc1
inactive: dose: 75.0 mg/kg/injection, schedule: Q01DX009 (ip), vehicle: Klucel (hydroxypropylcellulose) (HPC) 100 % of control | dose: 150.0 mg/kg/injection, schedule: Q01DX009 (ip), vehicle: Klucel (hydroxypropylcellulose) (HPC) 95 % of control | dose: 300.0 mg/kg/injection, schedule: Q01DX009 (ip), vehicle: Klucel (hydroxypropylcellulose) (HPC) 92 % of control

O=C(O)/C=C/C(=O)Nc1cccc(Oc2ccc([N+](=O)[O-])cc2[N+](=O)[O-])c1
inactive: [17] 106 % of control | [18] 111 % of control | [19] 104 % of control

CCCCCCC(=O)CCCCCCCCCCCCC(=O)OC
inactive: [16] 88 % of control

From PubChem BioAssay AID248 (DTP/NCI, 2004)
